Source: patent US20260327204A1, “DEGRADERS OF CYCLIN-DEPENDENT KINASE 12/13, COMPOSITIONS, AND USES THEREOF” (ZHEJIANG UNIVERSITY, priority 2023, published 2026)

How the values were obtained:
[1] = biological target: CDK12 (Homo sapiens, UniProt Q9NYV4); test: Western blot degradation of CDK12 (Example 2); assay type: cell-based; design: degradation of CDK12/13 protein in leukemia cells KASUMI-1, MV4-11, and Jurkat; endogenous in cells; details: DC50 classes, cell line not given; for DC50: read-out: CDK12 degradation Activity
Sequence of CDK12 (Q9NYV4 whole entry): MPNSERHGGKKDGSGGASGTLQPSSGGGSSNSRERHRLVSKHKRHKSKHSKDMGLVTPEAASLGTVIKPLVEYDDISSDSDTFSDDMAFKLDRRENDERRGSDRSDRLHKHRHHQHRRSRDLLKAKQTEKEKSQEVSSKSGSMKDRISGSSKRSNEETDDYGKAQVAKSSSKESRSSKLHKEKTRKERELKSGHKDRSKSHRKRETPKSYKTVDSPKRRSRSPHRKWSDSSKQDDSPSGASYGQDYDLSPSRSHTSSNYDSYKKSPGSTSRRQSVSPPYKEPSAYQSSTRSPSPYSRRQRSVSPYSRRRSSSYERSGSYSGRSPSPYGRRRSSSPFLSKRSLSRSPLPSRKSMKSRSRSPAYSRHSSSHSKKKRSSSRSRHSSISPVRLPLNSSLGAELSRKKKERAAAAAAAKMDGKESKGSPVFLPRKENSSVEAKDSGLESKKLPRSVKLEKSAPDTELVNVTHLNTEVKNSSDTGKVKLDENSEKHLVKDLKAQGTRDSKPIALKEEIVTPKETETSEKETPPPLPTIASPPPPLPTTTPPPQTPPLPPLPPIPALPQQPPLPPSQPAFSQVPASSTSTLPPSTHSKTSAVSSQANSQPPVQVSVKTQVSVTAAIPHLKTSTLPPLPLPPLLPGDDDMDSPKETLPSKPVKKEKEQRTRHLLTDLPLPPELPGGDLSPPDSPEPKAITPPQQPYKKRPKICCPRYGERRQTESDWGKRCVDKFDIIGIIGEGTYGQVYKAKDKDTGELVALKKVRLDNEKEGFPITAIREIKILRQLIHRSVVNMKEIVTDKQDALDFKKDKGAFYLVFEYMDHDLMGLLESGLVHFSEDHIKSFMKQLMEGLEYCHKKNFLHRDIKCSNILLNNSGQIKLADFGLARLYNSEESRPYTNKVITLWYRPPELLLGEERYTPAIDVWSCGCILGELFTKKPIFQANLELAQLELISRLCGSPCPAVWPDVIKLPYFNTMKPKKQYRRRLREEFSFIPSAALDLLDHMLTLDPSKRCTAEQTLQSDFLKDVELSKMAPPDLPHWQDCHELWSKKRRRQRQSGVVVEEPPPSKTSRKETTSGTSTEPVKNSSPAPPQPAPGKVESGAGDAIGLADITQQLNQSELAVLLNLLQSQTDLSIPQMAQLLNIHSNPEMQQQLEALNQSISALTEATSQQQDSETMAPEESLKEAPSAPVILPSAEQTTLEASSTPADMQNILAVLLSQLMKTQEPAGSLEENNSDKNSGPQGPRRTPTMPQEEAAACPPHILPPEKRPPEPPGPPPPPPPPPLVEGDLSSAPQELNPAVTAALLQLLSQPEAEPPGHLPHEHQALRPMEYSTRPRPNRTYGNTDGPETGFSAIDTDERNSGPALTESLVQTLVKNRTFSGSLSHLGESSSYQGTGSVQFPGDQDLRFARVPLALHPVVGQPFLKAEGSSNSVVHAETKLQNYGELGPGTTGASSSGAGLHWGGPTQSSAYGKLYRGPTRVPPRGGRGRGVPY
Sequence of CDK12 (O75909 whole entry partner): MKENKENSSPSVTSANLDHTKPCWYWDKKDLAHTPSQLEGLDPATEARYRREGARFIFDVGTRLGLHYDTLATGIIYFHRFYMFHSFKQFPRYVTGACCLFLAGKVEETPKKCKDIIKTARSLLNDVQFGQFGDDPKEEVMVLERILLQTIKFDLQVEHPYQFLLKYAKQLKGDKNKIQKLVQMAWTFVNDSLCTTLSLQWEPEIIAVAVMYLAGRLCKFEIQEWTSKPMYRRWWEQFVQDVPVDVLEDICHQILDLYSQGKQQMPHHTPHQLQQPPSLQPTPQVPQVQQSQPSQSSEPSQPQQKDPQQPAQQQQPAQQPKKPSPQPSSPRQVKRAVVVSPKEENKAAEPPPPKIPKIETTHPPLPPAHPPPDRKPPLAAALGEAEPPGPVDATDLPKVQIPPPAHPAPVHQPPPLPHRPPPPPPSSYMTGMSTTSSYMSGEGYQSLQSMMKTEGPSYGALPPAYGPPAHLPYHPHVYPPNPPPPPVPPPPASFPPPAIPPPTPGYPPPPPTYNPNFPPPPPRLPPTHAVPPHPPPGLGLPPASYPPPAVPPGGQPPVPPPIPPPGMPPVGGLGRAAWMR
Experimental: (§1) Western blot was used to determine the degradation of CDK12/13 protein in leukemia cells KASUMI-1, MV4-11, and Jurkat. The two compounds with the best degradation effects were further validated for their ability to degrade CDK12/13 protein in breast cancer cells MDA-MB-231 using a concentration gradient.
(§2) • Cell lines: KASUMI-1, MV4-11, Jurkat, or MDA-MB-231 • Culture medium: DMEM/RIPM-1640+10% Hyclone serum • Compound dissolution method: Compounds were dissolved in DMSO to prepare a 50 mM stock solution, and then diluted to the corresponding concentrations.
(§3) (1) In vitro cell culture: The selected cells were cultured in a 37 °C constant temperature incubator with 5% CO2. Once the cell density reached 70-90%, they were passaged for subsequent experiments.
(§4) (2) Cell seeding: Cells were digested, and the cell suspension was transferred to a 1.5 mL Eppendorf tube. After centrifugation at 1,000 rpm for 5 min, the cells were resuspended in 2 mL of culture medium and counted. The cell suspension was seeded in a 24-well plate at a density of 200,000 cells per well and allowed to adhere for 8-12 h.
(§5) (3) Compound treatment: The 50 mM compound stock solution was diluted with cell culture medium to a final concentration of 0.01 μM-3 μM. Cells were incubated in a 37 °C incubator with 5% CO2 for 3 h-48 h. The DMSO group served as the negative control.
(§6) At the end of the treatment time, the cells were collected and washed once with PBS. An appropriate volume of 4% SDS was added to lyse the cells, and the mixture was sonicated until no longer viscous. After centrifugation at 12,000 rpm at room temperature for 30 min, the supernatant was transferred to a new EP tube for protein quantification.
(§7) The exposure results were quantitatively analyzed using Image J software. First, the grayscale values of the bands were calculated using Image J. Then, the grayscale value of the target protein was divided by the grayscale value of the internal reference protein for normalization. The calculation formula is: […]
(§8) Where A is the grayscale value and D is the degradation rate.
(§9) In the figures, CDK12 and CDK13 are the target proteins under study, and β-Actin and GAPDH are the internal reference proteins. Internal reference proteins are used to indicate the total protein amount in each experimental group for quantitative analysis.

[2] = biological target: CDK13 (Homo sapiens, UniProt Q14004); test: Western blot degradation of CDK13 (Example 2); assay type: cell-based; design: degradation of CDK12/13 protein in leukemia cells KASUMI-1, MV4-11, and Jurkat; endogenous in cells; details: DC50 classes, cell line not given; for DC50: read-out: CDK13 degradation Activity
Sequence of CDK13 (Q14004 whole entry): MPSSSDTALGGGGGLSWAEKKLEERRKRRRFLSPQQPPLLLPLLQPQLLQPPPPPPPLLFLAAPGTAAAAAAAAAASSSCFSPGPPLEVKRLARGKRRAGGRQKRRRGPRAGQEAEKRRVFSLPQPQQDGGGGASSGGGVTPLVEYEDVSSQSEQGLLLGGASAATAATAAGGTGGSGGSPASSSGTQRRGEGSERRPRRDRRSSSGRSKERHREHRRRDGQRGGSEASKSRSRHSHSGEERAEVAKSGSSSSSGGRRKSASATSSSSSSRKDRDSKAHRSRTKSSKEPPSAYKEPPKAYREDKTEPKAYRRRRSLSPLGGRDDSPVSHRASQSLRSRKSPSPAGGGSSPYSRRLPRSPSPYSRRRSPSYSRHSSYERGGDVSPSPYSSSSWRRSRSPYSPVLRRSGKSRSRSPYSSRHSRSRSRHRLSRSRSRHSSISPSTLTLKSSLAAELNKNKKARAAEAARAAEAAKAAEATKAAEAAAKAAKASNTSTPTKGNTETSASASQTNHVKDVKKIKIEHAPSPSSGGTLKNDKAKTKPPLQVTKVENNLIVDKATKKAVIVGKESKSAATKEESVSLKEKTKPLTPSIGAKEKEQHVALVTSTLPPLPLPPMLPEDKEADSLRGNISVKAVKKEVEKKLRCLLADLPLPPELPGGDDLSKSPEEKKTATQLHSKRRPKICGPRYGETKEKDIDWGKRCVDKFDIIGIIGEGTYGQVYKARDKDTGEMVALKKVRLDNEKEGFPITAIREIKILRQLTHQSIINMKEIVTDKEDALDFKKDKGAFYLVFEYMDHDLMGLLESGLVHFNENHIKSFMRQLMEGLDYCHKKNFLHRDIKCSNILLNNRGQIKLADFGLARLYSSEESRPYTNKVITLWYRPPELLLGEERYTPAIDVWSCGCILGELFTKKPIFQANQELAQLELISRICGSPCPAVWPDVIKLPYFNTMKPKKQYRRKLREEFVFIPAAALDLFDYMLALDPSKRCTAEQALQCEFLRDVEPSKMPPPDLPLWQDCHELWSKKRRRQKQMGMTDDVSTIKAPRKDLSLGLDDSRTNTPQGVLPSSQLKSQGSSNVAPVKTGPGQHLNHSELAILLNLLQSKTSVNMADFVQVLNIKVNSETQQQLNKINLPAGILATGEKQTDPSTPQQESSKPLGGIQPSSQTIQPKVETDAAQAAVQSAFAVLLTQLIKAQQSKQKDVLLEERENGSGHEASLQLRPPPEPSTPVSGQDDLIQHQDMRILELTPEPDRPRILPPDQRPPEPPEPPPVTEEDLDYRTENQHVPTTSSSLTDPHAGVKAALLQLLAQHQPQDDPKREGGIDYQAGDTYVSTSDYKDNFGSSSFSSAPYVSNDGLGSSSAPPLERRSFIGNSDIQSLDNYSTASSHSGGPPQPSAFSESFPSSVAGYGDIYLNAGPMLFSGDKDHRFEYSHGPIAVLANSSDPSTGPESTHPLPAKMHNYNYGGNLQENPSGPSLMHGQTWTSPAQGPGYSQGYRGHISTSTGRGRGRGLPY
Sequence of CDK13 (O75909 whole entry partner): as the sequence (O75909 whole entry partner) above
Experimental: as §1, §2, §3, §4, §5, §6, §7, §8, §9

| Compound | DC50 [1] [nM] | DC50 [2] [nM] | CDK12 degradation Activity [1] | CDK13 degradation Activity [2] |
| --- | --- | --- | --- | --- |
| Cc1ncsc1-c1ccc([C@H](C)NC(=O)[C@@H]2C[C@@H](O)CN2C(=O)[C@@H](NC(=O)C2CCN(C(=O)C3CCN(c4ccc(-c5ccc(N(C(=O)NCc6ccccc6)[C@H]6CC[C@H](Nc7ccc(C#N)cn7)CC6)cc5)cn4)CC3)CC2)C(C)(C)C)cc1 [Formula 21] | 1000 to 3000 | 1000 to 3000 |  |  |
| Cc1ncsc1-c1ccc([C@H](C)NC(=O)[C@@H]2C[C@@H](O)CN2C(=O)[C@@H](NC(=O)CN2CCC(COc3ccc(-c4ccc(N(C(=O)NCc5ccccc5)[C@H]5CC[C@H](Nc6ccc(C#N)cn6)CC5)cc4)cn3)CC2)C(C)(C)C)cc1 [Formula 12] | 500 to 1000 | 100 to 500 |  |  |
| Cc1ncsc1-c1ccc([C@H](C)NC(=O)[C@@H]2C[C@@H](O)CN2C(=O)[C@@H](NC(=O)CC2CCN(c3ccc(-c4ccc(N(C(=O)NCc5ccccc5)[C@H]5CC[C@H](Nc6ccc(C#N)cn6)CC5)cc4)cn3)C2)C(C)(C)C)cc1 (stereo partly drawn) [Formula 30] | 500 to 1000 | 500 to 1000 |  |  |
| Cc1ncsc1-c1ccc([C@H](C)NC(=O)[C@@H]2C[C@@H](O)CN2C(=O)[C@@H](NC(=O)CC#CCCOc2ccc(-c3ccc(N(C(=O)NCc4ccccc4)[C@H]4CC[C@H](Nc5ccc(C#N)cn5)CC4)cc3)cn2)C(C)(C)C)cc1 [Formula 13] | 3000 to 10000 | 3000 to 10000 |  |  |
| Cc1ncsc1-c1ccc([C@H](C)NC(=O)[C@@H]2C[C@@H](O)CN2C(=O)[C@@H](NC(=O)CC#CCOc2ccc(-c3ccc(N(C(=O)NCc4ccccc4)[C@H]4CC[C@H](Nc5ccc(C#N)cn5)CC4)cc3)cn2)C(C)(C)C)cc1 [Formula 16] | 3000 to 10000 | 3000 to 10000 |  |  |
| Cc1ncsc1-c1ccc([C@H](C)NC(=O)[C@@H]2C[C@@H](O)CN2C(=O)[C@@H](NC(=O)C2CCN(c3ccc(-c4ccc(N(C(=O)NCc5ccccc5)[C@H]5CC[C@H](Nc6ccc(C#N)cn6)CC5)cc4)cn3)CC2)C(C)(C)C)cc1 [Formula 17] | 1000 to 3000 | 500 to 1000 |  |  |
| Cc1ncsc1-c1ccc([C@H](C)NC(=O)[C@@H]2C[C@@H](O)CN2C(=O)[C@@H](NC(=O)CC#CC2CN(c3ccc(-c4ccc(N(C(=O)NCc5ccccc5)[C@H]5CC[C@H](Nc6ccc(C#N)cn6)CC5)cc4)cn3)C2)C(C)(C)C)cc1 [Formula 23] | 3000 to 10000 |  |  | − |
| Cc1ncsc1-c1ccc([C@H](C)NC(=O)[C@@H]2C[C@@H](O)CN2C(=O)[C@@H](NC(=O)CN2CCN(c3ccc(-c4ccc5c(c4)CCCN(Cc4ccccc4)C(=O)N5[C@H]4CC[C@H](Nc5ccc(C#N)cn5)CC4)cn3)CC2)C(C)(C)C)cc1 [Formula 70] | < 100 | < 100 |  |  |
| Cc1ncsc1-c1ccc([C@H](C)NC(=O)[C@@H]2C[C@@H](O)CN2C(=O)[C@@H](NC(=O)CN2CCC(n3cc(-c4ccc(N(C(=O)NCc5ccccc5)[C@H]5CC[C@H](Nc6ccc(C#N)cn6)CC5)cc4)cn3)CC2)C(C)(C)C)cc1 [Formula 31] | 1000 to 3000 | 3000 to 10000 |  |  |
| Cc1ncsc1-c1ccc([C@H](C)NC(=O)[C@@H]2C[C@@H](O)CN2C(=O)[C@@H](NC(=O)CC2CN(c3ccc(-c4ccc(N(C(=O)NCc5ccccc5)[C@H]5CC[C@H](Nc6ccc(C#N)cn6)CC5)cc4)cn3)C2)C(C)(C)C)cc1 [Formula 29] | 3000 to 10000 |  |  | − |
| Cc1ncsc1-c1ccc([C@H](C)NC(=O)[C@@H]2C[C@@H](O)CN2C(=O)[C@@H](NC(=O)N2CCC3(CC2)CCN(c2ccc(N(C(=O)NCc4ccccc4)[C@H]4CC[C@H](Nc5ccc(C#N)cn5)CC4)cc2)CC3)C(C)(C)C)cc1 [Formula 51] | 3000 to 10000 | 3000 to 10000 |  |  |
| Cc1ncsc1-c1ccc([C@H](C)NC(=O)[C@@H]2C[C@@H](O)CN2C(=O)[C@@H](NC(=O)N2CCN(c3ccc(N(C(=O)NCc4ccccc4)[C@H]4CC[C@H](Nc5ncc6ccccc6n5)CC4)cc3)CC2)C(C)(C)C)cc1 [Formula 53] | 3000 to 10000 | 1000 to 3000 |  |  |
| Cc1ncsc1-c1ccc([C@H](C)NC(=O)[C@@H]2C[C@@H](O)CN2C(=O)[C@@H](NC(=O)C2CCN(C(=O)C3CCN(c4ccc(N(C(=O)NCc5ccccc5)[C@H]5CC[C@H](Nc6ccc(C#N)cn6)CC5)cc4)CC3)CC2)C(C)(C)C)cc1 [Formula 22] |  |  | − | − |
| Cc1ncsc1-c1ccc([C@H](C)NC(=O)[C@@H]2C[C@@H](O)CN2C(=O)[C@@H](NC(=O)COCCOc2ccc(-c3ccc4c(c3)CN(Cc3ccccc3)C(=O)N4[C@H]3CC[C@H](Nc4ccc(C#N)cn4)CC3)cn2)C(C)(C)C)cc1 [Formula 62] | 500 to 1000 | 500 to 1000 |  |  |
| Cc1ncsc1-c1ccc([C@H](C)NC(=O)[C@@H]2C[C@@H](O)CN2C(=O)[C@@H](NC(=O)COCCOCCOCCOCCOc2ccc(-c3ccc(N(C(=O)NCc4ccccc4)[C@H]4CC[C@H](Nc5ccc(C#N)cn5)CC4)cc3)cn2)C(C)(C)C)cc1 [Formula 4] | 3000 to 10000 | 3000 to 10000 |  |  |
| Cc1ncsc1-c1ccc([C@H](C)NC(=O)[C@@H]2C[C@@H](O)CN2C(=O)[C@@H](NC(=O)CN2CCN(c3ccc(-c4ccc5c(c4)CCN(Cc4ccccc4)C(=O)N5[C@H]4CC[C@H](Nc5ccc(C#N)cn5)CC4)cn3)CC2)C(C)(C)C)cc1 [Formula 69] | 500 to 1000 | 100 to 500 |  |  |

Next, values leading:

| DC50 [1] [nM] | DC50 [2] [nM] | CDK12 degradation Activity [1] | CDK13 degradation Activity [2] | Compound |
| --- | --- | --- | --- | --- |
|  |  | − | − | Cc1ncsc1-c1ccc([C@H](C)NC(=O)[C@@H]2C[C@@H](O)CN2C(=O)[C@@H](NC(=O)COCCOCCOCCn2cc(-c3ccc(N(C(=O)NCc4ccccc4)[C@H]4CC[C@H](Nc5ccc(C#N)cn5)CC4)cc3)ccc2=O)C(C)(C)C)cc1 [Formula 58] |
| 100 to 500 | 100 to 500 |  |  | Cc1ncsc1-c1ccc([C@H](C)NC(=O)[C@@H]2C[C@@H](O)CN2C(=O)[C@@H](NC(=O)COCCOc2ccc(-c3ccc(N(C(=O)NCc4ccccc4)[C@H]4CC[C@H](Nc5ccc(C#N)cn5)CC4)cc3)cn2)C(C)(C)C)cc1 [Formula 1] |
| 3000 to 10000 |  |  | − | Cc1ncsc1-c1ccc([C@H](C)NC(=O)[C@@H]2C[C@@H](O)CN2C(=O)[C@@H](NC(=O)CN2CC(Oc3ccc(-c4ccc(N(C(=O)NCc5ccccc5)[C@H]5CC[C@H](Nc6ccc(C#N)cn6)CC5)cc4)cn3)C2)C(C)(C)C)cc1 [Formula 14] |
|  |  | − | − | Cc1ncsc1-c1ccc([C@H](C)NC(=O)[C@@H]2C[C@@H](O)CN2C(=O)[C@@H](NC(=O)COCCOCCn2cc(-c3ccc(N(C(=O)NCc4ccccc4)[C@H]4CC[C@H](Nc5ccc(C#N)cn5)CC4)cc3)ccc2=O)C(C)(C)C)cc1 [Formula 57] |
| 500 to 1000 | 1000 to 3000 |  |  | N#Cc1ccc(N[C@H]2CC[C@H](N(C(=O)NCc3ccccc3)c3ccc(N4CCN(CCOCCNc5cccc6c5C(=O)N(C5CCC(=O)NC5=O)C6=O)CC4)cc3)CC2)nc1 (stereo partly drawn) [Formula 38] |
| 1000 to 3000 | 3000 to 10000 |  |  | Cc1ncsc1-c1ccc([C@H](C)NC(=O)[C@@H]2C[C@@H](O)CN2C(=O)[C@@H](NC(=O)COCCN2CCN(c3ccc(N(C(=O)NCc4ccccc4)[C@H]4CC[C@H](Nc5ccc(C#N)cn5)CC4)cc3)CC2)C(C)(C)C)cc1 [Formula 7] |
|  |  | − | − | N#Cc1ccc(N[C@H]2CC[C@H](N(C(=O)NCc3ccccc3)c3ccc(-c4ccc(OCCOCCOCCOCCOCCOCCNc5cccc6c5C(=O)N(C5CCC(=O)NC5=O)C6=O)nc4)cc3)CC2)nc1 (stereo partly drawn) [Formula 36] |
| 500 to 1000 | 1000 to 3000 |  |  | N#Cc1ccc(N[C@H]2CC[C@H](N(C(=O)NCc3ccccc3)c3ccc(N4CCN(CCOCCOCCOCCNc5cccc6c5C(=O)N(C5CCC(=O)NC5=O)C6=O)CC4)cc3)CC2)nc1 (stereo partly drawn) [Formula 40] |
| 1000 to 3000 | 1000 to 3000 |  |  | CCNC(=O)N(c1ccc(-c2ccc(OCCOCCOCCOCCNc3cccc4c3C(=O)N(C3CCC(=O)NC3=O)C4=O)nc2)cc1)[C@H]1CC[C@H](Nc2ccc(C#N)cn2)CC1 (stereo partly drawn) [Formula 43] |
| 1000 to 3000 | 500 to 1000 |  |  | Cc1ncsc1-c1ccc([C@H](C)NC(=O)[C@@H]2C[C@@H](O)CN2C(=O)[C@@H](NC(=O)COCCOCCOc2ccc(-c3ccc(N(C(=O)NCc4ccccc4)[C@H]4CC[C@H](Nc5ccc(C#N)cn5)CC4)cc3)cn2)C(C)(C)C)cc1 [Formula 2] |
| 1000 to 3000 | 500 to 1000 |  |  | N#Cc1ccc(N[C@H]2CC[C@H](N(C(=O)NCc3ccccc3)c3ccc(-c4ccc(=O)n(CCOCCNc5cccc6c5C(=O)N(C5CCC(=O)NC5=O)C6=O)c4)cc3)CC2)nc1 (stereo partly drawn) [Formula 46] |
